According to US20240294511A1, “SOLID FORM OF INDOLE COMPOUND, PREPARATION METHOD THEREFOR AND USE THEREOF” (KEYTHERA (SUZHOU) BIO-PHARMACEUTICALS CO., LIMITED, priority 2021, published 2024):
Each block holds one molecule with its values, some of them ahead of it.

Columns and labels:
High temperature test = format: physicochemical; conditions: 60° C.
Procedure: (§1) Crystalline form II of the compound of Formula (1) was placed at a high temperature of 60° C. for 30 days. Samples were taken at 0, 5, 10, and 30 days, respectively, to observe changes in sample characteristics, measure specific rotation with a polarimeter, test for drying loss, measure the total impurity content by HPLC, and measure the XRPD patterns of the samples.

High humidity test = format: physicochemical
Procedure: as §1, with “at 25° C. and 92.5%” for “at a”, “high humidity” for “high temperature of 60° C.”, “characteristics,” for “characteristics, measure specific rotation with a polarimeter,”

Solid stability test = format: physicochemical; conditions: for Purity - Day 7: 7 days
Procedure: (§2) The solid samples obtained in the examples were analyzed for crystalline form using a PANalytical EMPYREAN equipped with a PIXceI^1D detector. The instrument parameters are as follows: scanning range: 3° (2θ) to 40° (2θ); step size: 0.013° (2θ); tube voltage and current are 45 KV and 40 mA, respectively.
The HPLC measurements were performed using an Agilent HPLC 1260 series instrument.
Crystalline form II was stored separately at a sealed condition at 60° C. and at 40° C./75% RH for 7 days. The purity of the samples was determined by HPLC before and after storage, and the XRPD patterns were measured.

Mechanical grinding test = format: physicochemical; conditions: 0.5 g ground in a mortar for about 5 minutes
Procedure: as §2
0.5 g of crystalline form II was placed in a mortar and ground for about 5 minutes, then the solid was collected for XRPD testing.

Light exposure test = format: physicochemical
Procedure: Crystalline form II of the compound of Formula (1) was placed under conditions of light intensity not less than 1.2×10^6 Lux·hr, with near-ultraviolet energy not less than 200 w·hr/m^2, at 25° C., RH 25% for 30 days. Samples were taken at 0, 5, 10, and 30 days, respectively, to observe changes in sample characteristics, test for drying loss, measure the total impurity content by HPLC, and measure the XRPD patterns of the samples.

[1] = Crystalline form transformation test (heating); format: physicochemical; conditions: slowly heated to 200° C., then cooled to room temperature
Procedure: as §2
Crystalline form IV was slowly heated to 200° C. and then cooled to room temperature. Samples before and after heating were collected for XRPD testing.

[2] = Pharmacokinetic test in beagle dogs; format: in vivo; conditions: dog, blood
Procedure: (§3) A clear solution of crystalline form II of the compound of Formula (1) was prepared in 10% DMSO, 60% PEG 400, and 30% water for injection and administered intravenously to beagle dogs. An aqueous suspension of crystalline form II of the compound of Formula (1) in 0.5% sodium carboxymethylcellulose (CMC·Na) was prepared and administered orally to beagle dogs to investigate its pharmacokinetic characteristics.

[3] = Pharmacokinetic test in SD rats; format: in vivo; conditions: rat, blood
Procedure: as §3, with “SD rats.” for “beagle dogs.”, “SD rats” for “beagle dogs”

stability under high-temperature conditions (High temperature test): stable
differences in appearance, moisture, content and crystalline form compared to day 0 (High temperature test; 30 days): no significant differences
new impurities formed (High temperature test; 30 days, HPLC): ≤ 0.05%
differences in appearance, moisture, content and crystalline form compared to day 0 (High humidity test; 25° C., 92.5% RH, 30 days): no significant differences
water absorption (High humidity test; 25° C., 92.5% RH, 30 days): 0.03%
new impurities formed (High humidity test; 25° C., 92.5% RH, 30 days, HPLC): ≤ 0.05%
stability under high humidity conditions (High humidity test; RH 92.5%): stable
Purity - Day 7 (Solid stability test; HPLC, 40° C./75% RH): 99.4 Area %
Purity at the beginning (Solid stability test; HPLC, before storage): 99.4 Area %
Purity - Day 7 (Solid stability test; HPLC, sealed condition at 60° C.): 99.6 Area %
crystalline form after storage (XRPD) (Solid stability test; sealed at 60° C. and at 40° C./75% RH for 7 days): remained unchanged
crystalline form after grinding (XRPD) (Mechanical grinding test): remained unchanged
crystalline form (XRPD) (Light exposure test; light exposure, 30 days): did not change
new impurities formed (Light exposure test; light exposure, 30 days, HPLC): ≤ 0.05%
changes in moisture and content compared to day 0 (Light exposure test; light not less than 1.2×10^6 Lux·hr, near-UV not less than 200 w·hr/m^2, 25° C., RH 25%, 30 days): no significant changes
stability under light exposure conditions (Light exposure test; total illumination not less than 1.2×10^6 Lux·hr, near-UV not less than 200 w·hr/m^2): stable
Structure (SMILES): O=C(NC1(C23CC(C(=O)O)(C2)C3)CC1)c1cccc2ccn(Cc3cc4ccccc4o3)c12 [Crystalline form II, 3-(1-(1-(benzofuran-2-ylmethyl)-1H-indole-7-carboxamido)cyclopropyl)bicyclo[1.1.1]pentane-1-carboxylic acid]

crystalline form after heating (XRPD) [1]: transformed into crystalline form II
Structure (SMILES): O=C(NC1(C23CC(C(=O)O)(C2)C3)CC1)c1cccc2ccn(Cc3cc4ccccc4o3)c12 [Crystalline form IV, 3-(1-(1-(benzofuran-2-ylmethyl)-1H-indole-7-carboxamido)cyclopropyl)bicyclo[1.1.1]pentane-1-carboxylic acid]

clearance ([2]; single intravenous 5 mg/kg, read-out: clearance (CL)): 6.64 mL/min/kg
Vd ([2]; single intravenous 5 mg/kg, read-out: steady-state apparent volume of distribution (Vss)): 1.5 L/kg
AUC(0-t) ([2]; single intravenous 5 mg/kg, solution of crystalline form II in 10% DMSO, 60% PEG 400, 30% water, read-out: drug exposure (AUC0-t)): 12600 ng·h/mL
AUC(0-t) ([2]; single oral 45 mg/kg, suspension of crystalline form II in 0.5% CMC·Na, read-out: exposure (AUC0-t)): 79600 ng·h/mL
Cmax ([2]; single oral 45 mg/kg, suspension of crystalline form II in 0.5% CMC·Na, read-out: maximum blood drug concentration (Cmax)): 32900 ng/mL
clearance ([3]; single intravenous 15 mg/kg, read-out: clearance (CL)): 3.59 mL/min/kg
Vd ([3]; single intravenous 15 mg/kg, read-out: steady-state apparent volume of distribution (Vss)): 1.18 L/kg
AUC(0-t) ([3]; single intravenous 15 mg/kg, solution of crystalline form II in 10% DMSO, 60% PEG 400, 30% water, read-out: drug exposure (AUC0-t)): 78.8 µg·h/mL
AUC(0-t) ([3]; single oral 40 mg/kg, suspension of crystalline form II in 0.5% CMC·Na, read-out: exposure (AUC0-t)): 153 µg·h/mL
Cmax ([3]; single oral 40 mg/kg, suspension of crystalline form II in 0.5% CMC·Na, read-out: maximum blood drug concentration (Cmax)): 27700 ng/mL
Structure (SMILES): O=C(NC1(C23CC(C(=O)O)(C2)C3)CC1)c1cccc2ccn(Cc3cc4ccccc4o3)c12 [compound of Formula (1), 3-(1-(1-(benzofuran-2-ylmethyl)-1H-indole-7-carboxamido)cyclopropyl)bicyclo[1.1.1]pentane-1-carboxylic acid]
